These are literature values, as cited in article PMC13112601 (International journal of biological macromolecules, 2026).

One data set concerns the target T1, ERRγ (Homo sapiens, UniProt P62508).
T1 construct: Full-length ERRα (A) and ERRγ (B) transfection assay results in HEK293 cells; host or cells: HEK293
T1 sequence (P62508 1-458): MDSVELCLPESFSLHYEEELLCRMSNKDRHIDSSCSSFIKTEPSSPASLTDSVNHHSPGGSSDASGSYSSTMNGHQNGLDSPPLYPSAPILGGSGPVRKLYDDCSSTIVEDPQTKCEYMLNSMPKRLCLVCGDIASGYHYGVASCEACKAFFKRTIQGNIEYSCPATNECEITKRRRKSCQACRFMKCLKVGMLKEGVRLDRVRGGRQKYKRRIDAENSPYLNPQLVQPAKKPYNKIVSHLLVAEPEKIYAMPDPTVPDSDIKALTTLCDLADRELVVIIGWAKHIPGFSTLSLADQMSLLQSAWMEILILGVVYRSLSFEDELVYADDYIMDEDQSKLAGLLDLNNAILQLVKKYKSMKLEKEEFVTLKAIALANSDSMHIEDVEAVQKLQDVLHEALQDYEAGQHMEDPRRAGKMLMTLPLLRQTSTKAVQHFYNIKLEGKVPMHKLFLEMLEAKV
To be noted: previously reported.

The target in another data set is T2, ERRα (Homo sapiens, UniProt P11474).
T2 construct: Full-length ERRα (A) and ERRγ (B) transfection assay results in HEK293 cells; host or cells: HEK293
T2 sequence (P11474 1-423): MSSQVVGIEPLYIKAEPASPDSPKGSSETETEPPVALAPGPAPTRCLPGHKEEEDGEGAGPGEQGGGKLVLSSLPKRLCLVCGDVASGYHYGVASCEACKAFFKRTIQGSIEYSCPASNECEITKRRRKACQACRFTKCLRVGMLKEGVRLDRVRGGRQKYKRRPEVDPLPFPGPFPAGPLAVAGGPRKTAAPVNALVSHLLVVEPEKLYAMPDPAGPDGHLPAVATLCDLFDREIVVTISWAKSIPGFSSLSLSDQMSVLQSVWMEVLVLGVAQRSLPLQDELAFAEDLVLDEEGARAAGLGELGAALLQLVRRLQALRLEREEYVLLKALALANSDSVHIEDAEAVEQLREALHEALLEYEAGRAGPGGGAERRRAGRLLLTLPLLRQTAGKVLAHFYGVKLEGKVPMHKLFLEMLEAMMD
To be noted: previously reported.

What is called EC50 is the concentration at which the effect is half-maximal. Take `Cc1ccc(C(=O)N/N=C/c2ccccc2)cc1` [BE5082, (E)-N′-Benzylidene-4-methylbenzohydrazide]: the EC50 on ERRγ is 194 nM; at ERRα, 209 nM.
